Laboratory results reported in US9506013B2 (priority 2010, dated 2016).
Where “and” joins values, the source holds several entries; their conditions need not be identical. Equal values may be shown once.

Key:
[1] = tested on: Pseudomonas aeruginosa and Staphylococcus aureas; format: cell-based
Pseudomonas aeruginosa = format: cell-based
Staphylococcus aureas = format: cell-based
[2] = format: physicochemical

Compound: C12 27EO eFAME [C12-11]
- Overall Rating [1]: good
- % Kill, 400 ppm (Pseudomonas aeruginosa): 30.1%
- % Kill, DI water (Pseudomonas aeruginosa): 34.9%
- % Kill, 400 ppm (Staphylococcus aureas): 36.2%
- % Kill, DI water (Staphylococcus aureas): 42.7%

Compound: CCC(CCCCCCCCC(=O)OCCOC)S(=O)(=O)[O-].[Na+] (centres unmarked) [C12-33, C12 eFAME Sulfonate]
- Adjuvant 1 h, emulsion stability, mL separation: 0 mL
- Anionic 1 h, emulsion stability, mL separation: 0 mL
- Nonionic 1 h, emulsion stability, mL separation: 0.25 mL
- Adjuvant 24 h, emulsion stability, mL separation: 0 mL
- Anionic 24 h, emulsion stability, mL separation: 0 mL
- Nonionic 24 h, emulsion stability, mL separation: 0.25 mL
- % Separation 1 h [2]: 3.2 C and 3.9 C
- % Separation 24 h [2]: 4 C and 4.1 C

Compound: C12 6EO eFAME [C12-9]
- Overall Rating [1]: good
- % Kill, 400 ppm (Pseudomonas aeruginosa): 23.2%
- % Kill, DI water (Pseudomonas aeruginosa): 32.6%
- % Kill, 400 ppm (Staphylococcus aureas): 3.2%
- % Kill, DI water (Staphylococcus aureas): 36.2%

Compound: C12 6EO eFAME Sulfonate [C12-10]
- Adjuvant 1 h, emulsion stability, mL separation: 0 mL
- Anionic 1 h, emulsion stability, mL separation: 0 mL
- Adjuvant 24 h, emulsion stability, mL separation: 0 mL
- Anionic 24 h, emulsion stability, mL separation: 0 mL
- Nonionic 24 h, emulsion stability, mL separation: 0.25 mL
- % Separation 1 h [2]: 4 C and 3.8 C
- % Separation 24 h [2]: 4.1 C and 4 C

Compound: C12 27EO eFAME Sulfonate [C12-32]
- Adjuvant 1 h, emulsion stability, mL separation: 0 mL
- Anionic 1 h, emulsion stability, mL separation: 0 mL
- Nonionic 1 h, emulsion stability, mL separation: 0.5 mL
- Adjuvant 24 h, emulsion stability, mL separation: 0 mL
- Anionic 24 h, emulsion stability, mL separation: 0 mL
- Nonionic 24 h, emulsion stability, mL separation: 0.5 mL
- % Separation 1 h [2]: 3 C and 2.9 C
- % Separation 24 h [2]: 3.2 C

Compound: C10 24EO eFAME [C10-11]
- Overall Rating [1]: good
- % Kill, 400 ppm (Pseudomonas aeruginosa): 21.3%
- % Kill, DI water (Pseudomonas aeruginosa): 28.9%
- % Kill, 400 ppm (Staphylococcus aureas): 30.9%
- % Kill, DI water (Staphylococcus aureas): 42.5%

Compound: C10 6EO eFAME [C10-9]
- Overall Rating [1]: good
- % Kill, 400 ppm (Pseudomonas aeruginosa): 29.1%
- % Kill, DI water (Pseudomonas aeruginosa): 37.2%
- % Kill, 400 ppm (Staphylococcus aureas): 23.4%
- % Kill, DI water (Staphylococcus aureas): 38.4%

Compound: COCCOC(=O)CCCCCCCCC(CCCCCCCC(=O)OCCOC)S(=O)(=O)[O-].[Na+] (centres unmarked) [Mix-61, C18 eFAME Sulfonate]
- % Separation 1 h [2]: 3.8 C and 3.7 C
- % Separation 24 h [2]: 4 C and 3.9 C

Compound: C10 24EO eFAME Sulfonate [C10-30]
- Adjuvant 1 h, emulsion stability, mL separation: 0 mL
- Anionic 1 h, emulsion stability, mL separation: 0 mL
- Nonionic 1 h, emulsion stability, mL separation: 0.25 mL
- Adjuvant 24 h, emulsion stability, mL separation: 0 mL
- Anionic 24 h, emulsion stability, mL separation: 0 mL
- Nonionic 24 h, emulsion stability, mL separation: 0.25 mL
- % Separation 1 h [2]: 3.8 C and 2.8 C
- % Separation 24 h [2]: 4 C and 3 C
